The target of data set [1] is T1, Solute carrier organic anion transporter family member 1B3 (Homo sapiens, UniProt Q9NPD5).
T1 sequence (Q9NPD5 whole entry): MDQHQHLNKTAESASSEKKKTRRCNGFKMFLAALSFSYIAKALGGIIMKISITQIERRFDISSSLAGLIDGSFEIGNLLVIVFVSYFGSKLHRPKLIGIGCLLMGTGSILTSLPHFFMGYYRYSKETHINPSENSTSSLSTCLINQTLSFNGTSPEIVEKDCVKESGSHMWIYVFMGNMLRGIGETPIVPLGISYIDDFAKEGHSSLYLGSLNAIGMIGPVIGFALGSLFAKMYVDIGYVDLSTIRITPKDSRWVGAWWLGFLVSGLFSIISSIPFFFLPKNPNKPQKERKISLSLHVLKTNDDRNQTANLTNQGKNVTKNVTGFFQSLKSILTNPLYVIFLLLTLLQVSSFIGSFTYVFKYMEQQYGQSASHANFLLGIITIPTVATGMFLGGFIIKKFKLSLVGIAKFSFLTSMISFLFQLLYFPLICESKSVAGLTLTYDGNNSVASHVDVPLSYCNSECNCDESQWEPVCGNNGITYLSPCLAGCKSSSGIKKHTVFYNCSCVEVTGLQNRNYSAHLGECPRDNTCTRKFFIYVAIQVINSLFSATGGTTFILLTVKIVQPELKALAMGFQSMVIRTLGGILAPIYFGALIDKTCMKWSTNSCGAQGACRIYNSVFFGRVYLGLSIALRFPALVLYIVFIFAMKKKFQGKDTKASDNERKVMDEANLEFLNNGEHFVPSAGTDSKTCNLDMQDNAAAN
In words: Inhibition of human liver OATP1B3 expressed in HEK293 Flp-In cells assessed as reduction in [3H]E17-betaG uptake at 20 uM incubated for 5 mins by scintillation counting. The settings on record: hek293, 5 min.

Data set [2] deals with T2, Solute carrier organic anion transporter family member 1B1 (Homo sapiens, UniProt Q9Y6L6).
T2 sequence (Q9Y6L6 whole entry): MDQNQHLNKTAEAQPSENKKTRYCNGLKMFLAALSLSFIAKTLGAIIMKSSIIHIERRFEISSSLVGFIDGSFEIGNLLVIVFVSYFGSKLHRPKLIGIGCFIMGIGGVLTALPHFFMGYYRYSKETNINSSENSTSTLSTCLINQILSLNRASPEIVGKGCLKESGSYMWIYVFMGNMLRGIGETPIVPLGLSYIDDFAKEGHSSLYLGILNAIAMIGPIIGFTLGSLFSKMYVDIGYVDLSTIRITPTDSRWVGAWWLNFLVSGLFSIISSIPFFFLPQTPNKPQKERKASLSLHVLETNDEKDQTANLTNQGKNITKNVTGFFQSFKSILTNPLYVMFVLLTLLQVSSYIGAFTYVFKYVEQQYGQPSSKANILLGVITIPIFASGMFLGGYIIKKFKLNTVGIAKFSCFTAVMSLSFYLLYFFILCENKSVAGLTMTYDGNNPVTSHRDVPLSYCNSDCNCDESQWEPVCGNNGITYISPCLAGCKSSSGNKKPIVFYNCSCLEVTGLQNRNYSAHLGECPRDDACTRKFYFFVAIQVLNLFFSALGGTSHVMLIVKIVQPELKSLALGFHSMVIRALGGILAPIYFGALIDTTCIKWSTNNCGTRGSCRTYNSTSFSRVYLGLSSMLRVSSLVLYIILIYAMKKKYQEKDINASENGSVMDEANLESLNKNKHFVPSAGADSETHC
Nature of the data set: Inhibition of human liver OATP1B1 expressed in HEK293 Flp-In cells assessed as reduction in E17-betaG uptake at 20 uM by scintillation counting. Particulars: hek293, 20 µM.

The target in data set [3] is T3, Solute carrier organic anion transporter family member 2B1 (Homo sapiens, UniProt O94956).
T3 sequence (O94956 whole entry): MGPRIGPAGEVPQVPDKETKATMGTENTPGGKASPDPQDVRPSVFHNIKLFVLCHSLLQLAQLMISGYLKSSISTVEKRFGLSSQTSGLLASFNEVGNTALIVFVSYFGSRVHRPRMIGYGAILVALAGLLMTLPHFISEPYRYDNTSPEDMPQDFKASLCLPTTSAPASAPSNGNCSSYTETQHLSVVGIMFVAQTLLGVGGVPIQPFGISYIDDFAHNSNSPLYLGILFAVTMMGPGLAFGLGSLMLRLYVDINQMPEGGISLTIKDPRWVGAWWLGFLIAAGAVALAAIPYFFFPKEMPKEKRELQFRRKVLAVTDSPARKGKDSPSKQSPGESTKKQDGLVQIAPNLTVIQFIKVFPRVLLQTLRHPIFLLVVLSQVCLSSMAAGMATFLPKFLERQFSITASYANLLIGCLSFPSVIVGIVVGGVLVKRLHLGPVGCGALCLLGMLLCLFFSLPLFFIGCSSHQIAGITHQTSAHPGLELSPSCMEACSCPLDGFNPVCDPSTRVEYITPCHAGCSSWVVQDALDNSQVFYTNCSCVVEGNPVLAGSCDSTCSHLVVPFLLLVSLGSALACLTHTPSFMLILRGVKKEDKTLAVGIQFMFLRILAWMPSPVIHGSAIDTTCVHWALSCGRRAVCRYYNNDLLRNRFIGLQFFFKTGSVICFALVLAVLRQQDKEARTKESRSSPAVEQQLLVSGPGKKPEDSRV
In words: Inhibition of human liver OATP2B1 expressed in HEK293 Flp-In cells assessed as reduction in [3H]E3S uptake at 20 uM incubated for 5 mins by scintillation counting. Particulars: hek293, 5 min.

`O=C1C[C@@H](c2ccc(O)cc2)Oc2cc(O)cc(O)c21` [NARINGENIN]: the INH in data set [1] is reported as -57.2%; in data set [2], 34.8%; in data set [3], 32.4%.

For the compound `C[N+](C)(C)CC(O)CC(=O)[O-]` (centres undefined) [CARNITINE], the INH was -9.3% in data set [1], 36.6% in data set [2] and 15.5% in data set [3].

For `O=C1Nc2ccc(Cl)cc2[C@@](C#CC2CC2)(C(F)(F)F)O1` [EFAVIRENZ], the INH is on record as 18.2% in data set [1], 40.9% in data set [2] and 43.2% in data set [3].

Consider `CC1(C)S[C@@H]2[C@H](NC(=O)Cc3ccccc3)C(=O)N2[C@H]1C(=O)O` [PENICILLIN G], for which the values for the INH in data set [1], in data set [2] and in data set [3] were 40.9%, 8.8% and 7.6%, respectively.

Take `CCc1c2c(nc3ccc(OC(=O)N4CCC(N5CCCCC5)CC4)cc13)-c1cc3c(c(=O)n1C2)COC(=O)[C@]3(O)CC` [IRINOTECAN]: the INH in data set [1] stood at 26.9%; in data set [2], 40.5%; in data set [3] it was 16.3%.

Regarding `Cc1nc2c([nH]1)c(=O)n(C)c(=O)n2Cc1ccco1` [FURAFYLLINE], the INH was 0.7% in data set [1], -14.7% in data set [2] and 18.1% in data set [3].

For the compound `COC(=O)N[C@H](C(=O)N[C@@H](Cc1ccccc1)[C@@H](O)CN(Cc1ccc(-c2ccccn2)cc1)NC(=O)[C@@H](NC(=O)OC)C(C)(C)C)C(C)(C)C` [ATAZANAVIR], the INH in data set [1] amounted to 92.6%; in data set [2], 95%; in data set [3] it was 90.1%.

Consider `O=C(O)[C@H]1O[C@@H](Oc2cc3oc(-c4ccccc4)cc(=O)c3c(O)c2O)[C@H](O)[C@@H](O)[C@@H]1O` [BAICALIN], for which the figures for the INH in data set [1], in data set [2] and in data set [3] were 20.9%, 27.6% and 59.1%, respectively.

On to `CCCc1nc2c(C)cc(-c3nc4ccccc4n3C)cc2n1Cc1ccc(-c2ccccc2C(=O)O)cc1`, for which the INH in data set [1] came out at 91.5%; in data set [2] it was 109.4%; in data set [3] it was 94.9%.

Take `O=c1c(-c2ccc(O)cc2)coc2cc(O)ccc12` [DAIDZEIN]: the values for the INH in data set [1], in data set [2] and in data set [3] were 0.7%, 35% and 32%, respectively.

With `C/C=C/C[C@@H](C)C(=O)[C@H]1C(=O)N[C@@H](C(C)C)C(=O)N(C)CC(=O)N(C)[C@@H](CC(C)C)C(=O)N[C@@H](C(C)C)C(=O)N(C)[C@@H](CC(C)C)C(=O)N[C@@H](C)C(=O)N[C@H](C)C(=O)N(C)[C@@H](CC(C)C)C(=O)N(C)[C@@H](CC(C)C)C(=O)N(C)[C@@H](C(C)C)C(=O)N1C` [VALSPODAR], the INH in data set [1] turned out to be 93.9%; in data set [2] it was 96.3%; in data set [3] it was 33.1%.

With `C[C@@H]1O[C@@H](O[C@H]2[C@H](Oc3cc(O)c4c(c3)O[C@H](c3ccc(O)cc3)CC4=O)O[C@H](CO)[C@@H](O)[C@@H]2O)[C@H](O)[C@H](O)[C@H]1O` [NARINGIN], the INH in data set [1] turned out to be 37.7%; in data set [2], 34%; in data set [3], 47.1%.

In the case of `CCN(CC)CCNC(=O)c1ccc(N)cc1` [PROCAINAMIDE], the INH is recorded as 3.4% in data set [1], 21.6% in data set [2] and 17.8% in data set [3].

Regarding `C[C@H](CS)C(=O)N1CCC[C@H]1C(=O)O` [CAPTOPRIL], the figures for the INH in data set [1], in data set [2] and in data set [3] were 4%, 18.6% and 39.1%, respectively.

For `CC1=C(C(=O)O)N2C(=O)[C@@H](NC(=O)[C@H](N)c3ccc(O)cc3)[C@H]2SC1` [CEFADROXIL], the INH is reported as 21% in data set [1], 9.4% in data set [2] and 3.5% in data set [3].

As to `COc1cc(Cc2cnc(N)nc2N)cc(OC)c1OC` [TRIMETHOPRIM], the INH in data set [1] is recorded as 18.8%; in data set [2], 24.7%; in data set [3] it was 35.1%.

Turning to `Oc1ncnc2[nH]ncc12` [ALLOPURINOL], the INH in data set [1] is 10.8%; in data set [2] it was -35.6%; in data set [3], 8.4%.

Regarding `O=C1[C@H](CC[C@H](O)c2ccc(F)cc2)[C@@H](c2ccc(O)cc2)N1c1ccc(F)cc1` [EZETIMIBE], the INH is recorded as 1.5% in data set [1], 55.5% in data set [2] and -8.9% in data set [3].

As to `O=c1c(-c2ccc(O)cc2)coc2cc(O)cc(O)c12` [GENISTEIN], the INH in data set [1] is reported as -5%; in data set [2], 84.9%; in data set [3], 67.9%.

For the compound `Cc1ncc2n1-c1ccc(Cl)cc1C(c1ccccc1F)=NC2` [MIDAZOLAM], the INH is recorded as 6.7% in data set [1], 32.9% in data set [2] and 22.7% in data set [3].

On to `COc1ccc2cc3[n+](cc2c1OC)CCc1cc2c(cc1-3)OCO2` [BERBERINE], for which the results for the INH in data set [1], in data set [2] and in data set [3] were 19.4%, 32% and 18.5%, respectively.

As for `CC(C)C(=O)Nc1ccc([N+](=O)[O-])c(C(F)(F)F)c1` [FLUTAMIDE], the INH is reported as 9% in data set [1], 6.8% in data set [2] and 65.8% in data set [3].

Consider `CCC[C@@]1(CCc2ccccc2)CC(O)=C([C@H](CC)c2cccc(NS(=O)(=O)c3ccc(C(F)(F)F)cn3)c2)C(=O)O1`, for which the INH turned out to be 109% in data set [1], 89.5% in data set [2] and 99% in data set [3].

For the compound `S=P(N1CC1)(N1CC1)N1CC1` [THIOTEPA], the INH in data set [1] is 0.6%; in data set [2], -40.3%; in data set [3] it was 16.2%.

In the case of `Cn1nnnc1SCC1=C(C(=O)O)N2C(=O)[C@@H](NC(=O)[C@H](O)c3ccccc3)[C@H]2SC1` [CEFAMANDOLE], the INH in data set [1] was determined as 16.5%; in data set [2], 30.2%; in data set [3], 2.7%.

As for `CO[C@@H]1[C@@H](OC(N)=O)[C@@H](O)[C@H](Oc2ccc3c(O)c(NC(=O)c4ccc(O)c(CC=C(C)C)c4)c(=O)oc3c2C)OC1(C)C` [NOVOBIOCIN], the INH is given as 84.2% in data set [1], 58.1% in data set [2] and 85.6% in data set [3].

`Cc1cccc(C)c1OCC(=O)N[C@@H](Cc1ccccc1)[C@@H](O)C[C@H](Cc1ccccc1)NC(=O)[C@H](C(C)C)N1CCCNC1=O` [LOPINAVIR]: the INH in data set [1] was found to be 84.6%; in data set [2], 85.8%; in data set [3], 86.4%.

As for `O=C(O)c1cc(/N=N/c2ccc(S(=O)(=O)Nc3ccccn3)cc2)ccc1O` [SULFASALAZINE], the INH in data set [1] stood at 72.1%; in data set [2] it was 92.1%; in data set [3], 92.3%.

Source of the values: ChEMBL document CHEMBL2163248, “Classification of inhibitors of hepatic organic anion transporting polypeptides (OATPs): influence of protein expression on drug-drug interactions” (J Med Chem, 2012).
